Source: the OligoGym collection
Where “and” joins values, the source holds several entries; their conditions need not be identical. Equal entries are not always repeated. After the bases stand the sugars from the 5' end (letter, count) and the backbone: PS all phosphorothioate, else s phosphorothioate and o phosphodiester by linkage. Methylation of C is not given here. e = 2'-O-(2-methoxyethyl) (MOE); k = constrained ethyl (cEt); d = 2'-deoxy (DNA)

Molecular target: APOL1
Settings: ASO

| Sequence | target mRNA inhibition (A431, 2 µM) | target mRNA inhibition (A431, 0.25 µM) | target mRNA inhibition (A431, 1 µM) | target mRNA inhibition (A431, 0.04 µM) | target mRNA inhibition (A431, 0.0156 µM) | target mRNA inhibition (A431, 0.0625 µM) |
| --- | --- | --- | --- | --- | --- | --- |
| GTATTGTTTTTGTGGG (sugars kkddddkekekkdddd, PS) | 39% | – | – | – | – | – |
| GTATTTCTTGATGTGG (sugars k3 d4 k3 e1 d5, PS) | 98% | – | – | – | – | – |
| GTATTTCTTGATGTGG (sugars k3 d5 k3 d5, PS) | 99% and 100% | 95% and 98% and 99% | 97% and 99% and 100% | – | – | – |
| GTATTTCTTGATGTGG (sugars kekddddeekkddddd, PS) | 99% | – | 99% | 70% | – | – |
| GTATTTCTTGATGTGG (sugars kkdddddkekeddddd, PS) | 98% | 97% | 98% and 99% | 64% | 59% | 89% |
| GTCTAAAGTAAACTGC (sugars k4 d9 k3, PS) | – | 65% and 83% | 81% and 89% | – | – | – |
| GTGAGTATTGTTTTTG (sugars kkddddekekeddddd, PS) | 93% | – | – | – | – | – |
| GTGTATTTCTTGATGT (sugars k2 d4 e3 k2 d5, PS) | 96% | 79% | 91% | – | 18% | 51% |
| GTTATATTTGATCCTC (sugars kdddddkekekddddd, PS) | 95% | 78% | 92% | – | 26% | 56% |
| GTTATATTTGATCCTC (sugars kkddddkekekddddd, PS) | 80% | – | – | – | – | – |
| GTTATGAAATTATTGG (sugars kdddddkekekddddd, PS) | 73% | – | – | – | – | – |
| GTTATGAAATTATTGG (sugars kkddddekekeddddd, PS) | 68% | – | – | – | – | – |
| GTTATGAAATTATTGG (sugars kkddddkekekddddd, PS) | 83% | – | – | – | – | – |
| GTTCAAAAGCAGCATT (sugars k3 d4 k3 e1 d5, PS) | 80% | – | – | – | – | – |
| GTTCAAAAGCAGCATT (sugars kkkddddkekekdddd, PS) | 24% | – | – | – | – | – |
| GTTCTAACTCTTGGGC (sugars kdddddkekekddddd, PS) | 28% | – | – | – | – | – |
| GTTCTAACTCTTGGGC (sugars kddddkekekeddddd, PS) | 77% | – | – | – | – | – |
| GTTTACTTACCGGGTA (sugars k4 d9 k3, PS) | – | – | 84% and 63% | – | – | 47% and 38% |
| GTTTTATGGAGTCATT (sugars k4 d9 k3, PS) | – | 78% and 70% | 92% and 84% | – | – | 51% and 34% |
| GTTTTGTAAGTGCAAC (sugars k2 d4 e3 k2 d5, PS) | 83% | – | – | – | – | – |
| GTTTTGTAAGTGCAAC (sugars kkddddekekeddddd, PS) | 86% | – | – | – | – | – |
| TAAGTATTGCCAGCTA (sugars k2 d4 e3 k2 d5, PS) | 79% | – | – | – | – | – |
| TAAGTATTGCCAGCTA (sugars kkkddddkekeddddd, PS) | 78% | – | – | – | – | – |
| TAAGTGCTTTGATTCG (sugars k4 d9 k3, PS) | – | 87% and 92% | 94% and 96% | – | – | 64% and 82% |
| TAATTCTATTAGAGGG (sugars kkddddekekeddddd, PS) | 46% | – | – | – | – | – |
| TACTTCTGTTAGATAC (sugars k4 d9 k3, PS) | – | 76% | 92% | – | – | 47% |

| Sequence | target mRNA inhibition (A431, 2 µM) | target mRNA inhibition (A431, 0.25 µM) | target mRNA inhibition (A431, 1 µM) | target mRNA inhibition (A431, 0.04 µM) | target mRNA inhibition (A431, 0.0156 µM) | target mRNA inhibition (A431, 0.0625 µM) |
| --- | --- | --- | --- | --- | --- | --- |
| TATATTTGATCCTCAA (sugars kddddkekekeddddd, PS) | 75% | – | – | – | – | – |
| TATTTCTTGATGTGGT (sugars k3 d4 k3 e1 d5, PS) | 99% | 95% | 98% | – | 45% | 78% |
| TATTTCTTGATGTGGT (sugars kkddddekekeddddd, PS) | 99% | 90% | 98% and 96% | 53% and 50% | 36% | 66% |
| TATTTCTTGATGTGGT (sugars kkddddkdkdkddddd, PS) | 97% | 91% | 96% | – | 40% | 71% |
| TATTTCTTGATGTGGT (sugars kkddddkekekddddd, PS) | 97% | 92% | 96% | – | 44% | 77% |
| TCAACACATCATTGGG (sugars k4 d9 k3, PS) | – | 73% | 90% | – | – | 38% |
| TCAGATGGGTACTTCT (sugars k2 d4 e4 k2 d4, PS) | 78% | – | – | – | – | – |
| TCAGATGGGTACTTCT (sugars k4 d9 k3, PS) | – | 66% | 83% | – | – | 38% |
| TCAGATGGGTACTTCT (sugars kkkddddkekekdddd, PS) | 50% | – | – | – | – | – |
| TCAGCTAAGACCAGTG (sugars k4 d9 k3, PS) | – | 78% | 89% | – | – | 53% |
| TCAGCTATGGAAATGC (sugars k4 d9 k3, PS) | – | 78% | 92% | – | – | 45% |
| TCATAGATACTCCTCA (sugars k3 d10 k3, PS) | – | 51% | 80% | – | 8% | 17% |
| TCATCATAGATACTCC (sugars k4 d9 k3, PS) | – | 67% | 84% | – | – | 33% |
| TCATTAGTGCTATAGA (sugars k4 d9 k3, PS) | – | 71% | 86% | – | – | 25% |
| TCCAGATGTGTTTAGG (sugars k4 d9 k3, PS) | – | 89% | 94% | – | – | 82% |
| TCCGTCAATATATTCT (sugars k3 d10 k3, PS) | – | 96% | 98% | – | – | 83% |
| TCCGTCAATATATTCT (sugars kkddddkekekddddd, PS) | 94% | – | – | – | – | – |
| TCCGTCAATATATTCT (sugars kkkddddkekekdddd, PS) | 95% | 84% | 94% | 50% | 30% | 57% |
| TCCGTTCCAGGCCTCA (sugars k4 d9 k3, PS) | – | 44% | 58% | – | – | 29% |
| TCCTGGGCGGCGACAA (sugars k4 d9 k3, PS) | – | 74% | 85% | – | – | 46% |
| TCTATTAGAGGGCTAG (sugars k3 d4 k3 e1 d5, PS) | 51% | – | – | – | – | – |
| TCTATTAGAGGGCTAG (sugars kkdddddkekeddddd, PS) | 72% | – | – | – | – | – |
| TCTATTAGAGGGCTAG (sugars kkddddkdkdkddddd, PS) | 68% | – | – | – | – | – |
| TCTATTAGAGGGCTAG (sugars kkddddkekekddddd, PS) | 52% | – | – | – | – | – |
| TCTATTAGAGGGCTAG (sugars kkddddkekekkdddd, PS) | 25% | – | – | – | – | – |
| TGGGAATTATGGAATT (sugars kkddddkekekddddd, PS) | 87% | – | – | – | – | – |
